The source of these data is patent US4599228A, “Antimicrobial agent” (Vipont Laboratories, Inc., priority 1984, dated 1986).

Entries after “also recorded” stand apart in the source; their conditions may differ. Like-named read-outs stand apart in the source and are kept apart here.

Series [1] relates to plaque forming microorganisms freshly collected from human dental plaque. Description: Dental plaque reduction in vitro. It counts as cell-based.
Series [2] relates to Streptococcus mutans. Kind of series: Inhibitory concentration in vitro, separate test. It counts as cell-based. As to the method: (§1) A separate test was conducted to determine the inhibitory concentration of sanguinarine chloride alone. These concentrations, for microorganisms in vitro, are as follows: […]
For series [3], the system named is Escherichia coli. Description: Inhibitory concentration in vitro, separate test. It counts as cell-based. As to the method:
as §1

For series [4], the system named is Staphylococcus aureus. Kind of series: Inhibitory concentration in vitro, separate test. In kind it is cell-based. As to the method:
as §1

The test system of series [5] is Candida albicans. Kind of series: Inhibitory concentration in vitro, separate test. It counts as cell-based. As to the method:
as §1

The subject of series [6] is microorganisms. Description: General antimicrobial activity in vitro. In kind it is cell-based. From the text:
When zinc chloride was replaced with a fluoride salt in the present preparations, the activity of the preparation against microorganisms believed to be associated with the causation of dental caries and periodontal disease (Streptococcus mutans), as well as other microorganisms, remained identical.

Series [7] has as its system infection. Description: In vivo antimicrobial action and tolerability (clinical studies).
Series [8] concerns dental plaque / plaque forming microorganisms. Description: In vivo plaque, gingivitis and periodontal disease treatment of dogs and humans.
Series [9] deals with gingivitis, plaque and pocket depth in dogs. Description: Oral Clinical Studies - Beagles (dogs). Particulars: for Mean Gingivitis Scores / Mean Plaque Scores / Mean Pocket Depths / gingivitis, activity in words / return of dental plaque, activity in words: beagles; for Mean Gingivitis Scores / Mean Plaque Scores / Mean Pocket Depths: 0.1% sanguinarine chloride and/or 2.7% zinc chloride; for gingivitis, activity in words / return of dental plaque, activity in words: four weeks of treatment. It counts as in vivo, beagle dogs. Also on record: Mean Gingivitis Scores / Mean Plaque Scores: scale not given here. As to the method:
The dogs were treated topically once daily with the respective test formulation.

For series [10], the system named is Klebsiella pneumoniae. Description: Mean inactivating dose in vitro. In kind it is cell-based. Particulars: per ml of media. As to the method: (§2) In order to illustrate the antimicrobial effectiveness of the composition according to the present invention, a series of in vitro and in vivo tests were performed.
In series [11] the test system is Streptococcus faecalis. Kind of series: Mean inactivating dose in vitro. The note with it: per ml of media. In kind it is cell-based. As to the method: as §2
Series [12] concerns Bacillus subtilis. Description: Mean inactivating dose in vitro. The note with it: per ml of media. In kind it is cell-based. As to the method:
as §2

Series [13] relates to Streptococcus mutans. Description: Mean inactivating dose in vitro. In kind it is cell-based. Particulars: per ml of media. As to the method:
as §2

Series [14] concerns Pseudomonas aeruginosa. Kind of series: Mean inactivating dose in vitro. In kind it is cell-based. The note with it: per ml of media. As to the method:
as §2

Series [15] deals with Escherichia coli. Kind of series: Mean inactivating dose in vitro. It counts as cell-based. Particulars: per ml of media. As to the method:
as §2

Series [16] deals with Staphylococcus aureus. Description: Mean inactivating dose in vitro. It counts as cell-based. The note with it: per ml of media. As to the method:
as §2

The subject of series [17] is Proteus vulgaris. Kind of series: Mean inactivating dose in vitro. Particulars: per ml of media. In kind it is cell-based. As to the method: as §2
For series [18], the system named is Saccharomyces cerevisiae. Kind of series: Mean inactivating dose in vitro. In kind it is cell-based. The note with it: per ml of media. As to the method: as §2
Series [19] concerns fungi and protozoa. Particulars: in solution; cited from earlier work.
The mark [20] stands for this setting: 0 (start), baseline, topical once daily.
[21] abbreviates: after 4 weeks, topical once daily, untreated 0.91.
Setting [22] is: after 4 weeks, topical once daily, untreated 1.458.
The mark [23] stands for this setting: after 4 weeks, topical once daily, untreated 12.408.

Take `C[n+]1cc2c3c(ccc2c2ccc4cc5c(cc4c21)OCO5)OCO3` [Sanguinarine chloride, sanguinarine chloride]: in series [1], the “comparison with chlorhexidine (Hibitane), inhibition of plaque forming microorganisms” value is on record as “compared favorably in vitro to chlorhexidine”. Moreover, in series [1] (25 micrograms per milliliter), the “reduction of dental plaque” value is recorded as 100%. In addition, the MIC (commonly the lowest concentration that inhibits growth of the organism) in series [2] worked out at 50 mg/L; in series [3], 100 mg/L; in series [4] it was 10 mg/L; in [5] it was 100 mg/L. Further, the antimicrobial properties entry in [6] is reported as “strong antimicrobial properties”; in series [6] (listed as sanguinarine chloride), “quite effective against microorganisms”. In addition, the “in vivo effectiveness / antimicrobial action” value in [7] is “only slightly effective or not at all; also recorded: only slightly antimicrobial, very slow acting, or had no effect on the course of the infection at all”. Also, the “effect against plaque forming microorganisms in vivo” value in series [8] (in vivo) is recorded as “ineffective against plaque forming microorganisms”. Moreover, the “effect on dental plaque, gingivitis and periodontal disease” value in series [8] (repeated or continuous treatment of affected area, dogs and humans) is listed as “did not reduce dental plaque or alleviate the symptoms of gingivitis or periodontal disease; also recorded: did not prevent the accumulation of dental plaque on teeth or prevent the occurrence of periodontal disease”. Further, the “Mean Gingivitis Scores” value is reported as 0.495 in series [9] (setting [20]) and 0.942 in series [9] (setting [21]). Moreover, the “Mean Plaque Scores” value in series [9] (setting [20]) came to 8.885; in series [9] (setting [23]), 12.89. For the same compound, the “Mean Pocket Depths” value is 1.415 in [9] (setting [20]) and 1.48 in series [9] (setting [22]). In addition, the “plaque and gingivitis scores, rank among groups” value in [9] (24 male beagle dogs, after four weeks, topical once daily) was “highest”. Further, the “gingivitis, activity in words” value in series [9] is on record as “no activity in vivo at all”. In [9], the “return of dental plaque, activity in words” value is reported as “not active in vivo”.
Regarding `[Cl-].[Cl-].[Zn+2]` [Zinc chloride, zinc chloride, reference compound], in series [6], the antimicrobial properties entry is given as “antimicrobial properties only in high concentrations”. Further, the Mean inactivating dose in series [10] is reported as 3,125 μg/ml; in [11], 25,000 μg/ml; in [12] it was 25,000 μg/ml; in series [13], 1,563 μg/ml; in [14], 3,500 μg/ml; in series [15], 6,250 μg/ml. The Mean inactivating dose was 6,250 μg/ml in series [16], 12,500 μg/ml in series [17] and 6,250 μg/ml in series [18]. For the same compound, the “speed of action in vivo” value in series [7] is “slow acting in vivo as an antimicrobial agent”. For the same compound, the “tissue damage / undesirable side effects” value in series [7] (concentrations required for antimicrobial action) is “caused blanching of tissue and, in some cases, chemical burns and other tissue damage”. Besides, the “Mean Gingivitis Scores” value in series [9] (setting [20]) came to 0.44; in [9] (setting [21]) it was 0.75. Further, the “Mean Plaque Scores” value in [9] (setting [20]) amounted to 8.76; in series [9] (setting [23]) it was 10.15. The “Mean Pocket Depths” value in series [9] (setting [20]) is 1.46; in series [9] (setting [22]), 1.37. In series [9], the “gingivitis, activity in words” value was “slightly active”. For the same compound, in series [9], the “return of dental plaque, activity in words” value is recorded as “slightly preventive”.
Consider `COc1ccc2c(c[n+](C)c3c4cc5c(cc4ccc23)OCO5)c1OC` [chelerythrine chloride], for which the antimicrobial properties entry in [6] is on record as “strong antimicrobial properties”.
In the case of `C[n+]1cc2c3c(ccc2c2ccc4cc5c(cc4c21)OCO5)OCO3` [sanguinarine], the “antifungal and antiprotozoan properties” value in [19] is “some antifungal and antiprotozoan properties”.
